From patent publication US7872016B2, “Method for treating skeletal disorders resulting from FGFR malfunction” (Yale University, priority 2004, dated 2011)
“Also recorded” adds a separate entry of the source.

What was measured:
[1] = system: FRS2α; settings: unstimulated cells treated with the MEK inhibitor; cited from earlier work
[2] = system: FRS2α; assay: FRS2 phosphorylation in mutant cells expressing constitutively activated Crouzon-like mutant Fgfr2c isoform; type: cell-based; settings: results not shown
Experimental: (§1) We first tested the effect of PLX052 in vitro for blocking the activation of FGFR2. Cells were pretreated for 5 minutes with the compound before stimulation. […] We further tested the ability of PLX052 in blocking the FRS2 phosphorylation in mutant cells expressing constitutively activated Crouzon-like mutant Fgfr2c isoform.

[3] = target: T1, FGFR2 (Mus musculus, UniProt P21803); assay: Blocking ligand-stimulated tyrosine autophosphorylation of FLAG-tagged FGFR2 in 3T3 cells (IP / anti-pTyr immunoblot); type: cell-based; settings: 3T3 cells pretreated 5 minutes, then ligand stimulated 5 minutes at 37° C.
T1 construct: expressed in transfected cells; host or cells: 3T3 cells
T1 sequence (P21803 22-821): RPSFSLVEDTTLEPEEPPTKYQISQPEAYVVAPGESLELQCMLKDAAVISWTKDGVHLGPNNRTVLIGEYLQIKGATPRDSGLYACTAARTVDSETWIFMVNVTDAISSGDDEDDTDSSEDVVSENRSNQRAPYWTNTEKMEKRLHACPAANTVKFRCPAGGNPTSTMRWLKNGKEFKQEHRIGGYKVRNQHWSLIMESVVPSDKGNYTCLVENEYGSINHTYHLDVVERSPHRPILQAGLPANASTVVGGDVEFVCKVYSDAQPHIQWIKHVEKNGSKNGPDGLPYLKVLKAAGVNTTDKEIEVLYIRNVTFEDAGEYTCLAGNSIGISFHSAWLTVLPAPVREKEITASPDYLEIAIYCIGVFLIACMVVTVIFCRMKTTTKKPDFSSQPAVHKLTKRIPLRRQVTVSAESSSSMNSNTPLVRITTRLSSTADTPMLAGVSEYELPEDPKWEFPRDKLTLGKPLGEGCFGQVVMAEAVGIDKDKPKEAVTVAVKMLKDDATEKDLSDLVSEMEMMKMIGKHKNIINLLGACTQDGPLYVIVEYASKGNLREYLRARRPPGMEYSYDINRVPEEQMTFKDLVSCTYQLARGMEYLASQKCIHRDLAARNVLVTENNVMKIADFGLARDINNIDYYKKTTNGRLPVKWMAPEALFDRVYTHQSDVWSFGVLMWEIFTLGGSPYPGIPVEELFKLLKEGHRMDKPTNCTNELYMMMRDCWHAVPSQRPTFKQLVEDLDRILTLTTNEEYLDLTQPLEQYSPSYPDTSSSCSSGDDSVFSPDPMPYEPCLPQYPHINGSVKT
Experimental: FIGS. 14A-D show pharmacological intervention in FGFR activation. (C) Structure of [4-(3,5-difluorophenyl)-1H-pyrrolo[2,3-b]pyridin-3-yl](3-methoxyphenyl)methanone (PLX052). (D) 3T3-cells treated for 5 minutes with PLX052 were ligand stimulated for 5 minutes at 37° C. Cell lysates were subjected to immunoprecipitation with anti-FLAG tag antibodies (the expression vector contains a tag in the c-terminus of FGFR2) followed by immunoblotting with either anti-phosphotyrosine (pTyr) or anti-FLAG antibodies. (A & B) Crystals of the apo-FGFR1 minimal kinase domain were grown at 4° C. by vapor diffusion in hanging drops containing 2 uL of 12 mg/mL protein solution and 2 uL of reservoir solution: 16% PEG8K, 0.25 M (NH4)2SO4, 5% ethylene glycol, 10 mM DTT, and 0.1 M Bis Tris, pH 5.8. Native crystals were soaked overnight at 4° C. in mother liquor containing 2 mM PLX052 and 5% DMSO. Complexed crystal belongs to monoclinic space group C2 and has unit cell dimensions a=211.9 Å, b=49.7 Å, c=66.2 Å, and β=107.4°. One cryo-cooled crystal was used for data collection, and data was collected at beamline X26 at Brookhaven National Laboratory. Co-crystallization of the kinase with PLX052 was also performed and found the same structural result. […] The nucleotide binding loop is shown in blue, the hinge region in magenta, and the catalytic core in yellow. (A) The side chains that interact with PLX052. […]

[4] = system: MAP Kinase signaling; assay: MAP Kinase signaling in mutant cells expressing constitutively activated Crouzon-like mutant Fgfr2c isoform; type: cell-based; settings: results not shown
Experimental: as §1

[5] = system: cultured cells; assay: Cell death in cultured cells; type: cell-based; settings: within 24 hours
Experimental: (§2) PLX052 prevents cranial suture fusion in vitro. Next, we tested the ability of the PLX052 to prevent craniosynostosis in calvaria organ culture from wt and Crouzon-like mutant mice (FIG. 15). […] The calavria organ culture experiments were repeated with two different concentrations of PLX052 (1 μM and 5 μM) and cultured for extended period of time (21 days) to assess the dose response for this inhibitor (see below). […] Higher concentrations of PLX052 (50 μM and above) have caused extensive cell death within 24 hours in cultured cells. Therefore, it is feasible to use limited amount of inhibitor to attenuate the abnormal signaling from the mutant receptors without causing adverse effect on the normal signaling pathways.

[6] = system: wild type suture (calvaria); assay: Calvaria organ culture, wild type mice: suture development; type: cell-based, mouse; settings: for normal development of the sutures in the wild type: cultured 21 days
Experimental: (§3) FIGS. 15A-15D show results of in vitro culture of calvaria with FGFR inhibitor PLX052. Calvaria harvested from the Crouzon mutant and wild type E18.5 day old embryos were cultured in DMEM medium containing 10% FCS supplemented with ascorbic acid at 100 μg/ml and 1 μM PLX052 in 24 well plates. Medium was changed on alternate days along with the inhibitor. Controls were cultured with the vehicle only (0.2% DMSO). Calvaria were cultured for 14 days. After the specified time, calvaria were fixed in 10% buffered formalin, dehydrated followed by infiltration and embedding in methylmethacrylate plastic. Blocks were cut perpendicular to the coronal suture, that passes through the frontal bone (anterior side) and the parietal bone (posterior side). […] sections were collected and stained with toludine blue (FIG. 15.2, left panels). Adjacent sections were stained for minerals of the bone matrix using Van Kossa followed by methyl green counter staining. (A) wild type, and (B), mutant calvaria cultured with the vehicle alone (0.2% DMSO). Note the open suture in the wild type (A) and the fused suture in the mutant (B) cultured calvaria. (C), wild type and (D), mutant cultured with 1 μM PLX052 (in 0.2% DMSO). The left panels [(i), (iii)] are toluidine blue staining and the right panels [(ii), (iv)] are Van Kossa with methyl green counter staining. Lower panels [(iii), (iv)] are the higher magnification of the sutures shown in the boxed region of the upper panels [(i), (ii)].
as §2, with “Therefore, it is feasible to use limited amount of inhibitor to attenuate the abnormal signaling from the mutant receptors without causing adverse effect on the normal signaling pathways.” left out

[7] = system: coronal suture of Crouzon-like mutant mice calvaria; assay: Calvaria organ culture, Crouzon-like mutant mice: coronal suture fusion; type: cell-based, mouse; settings: for premature fusion of coronal suture of mutant mice calvaria: cultured 21 days
Experimental: as §3
as §2, with “Therefore, it is feasible to use limited amount of inhibitor to attenuate the abnormal signaling from the mutant receptors without causing adverse effect on the normal signaling pathways.” left out

[8] = 1 μM, E18.5 calvaria cultured 14 days

SMILES: COc1cccc(-c2cc(=O)c3ccccc3o2)c1N [PD 0980089]
- tyrosine phosphorylation of FRS2α [1]: leads to constitutive tyrosine phosphorylation of FRS2α

SMILES: COc1cccc(C(=O)c2c[nH]c3nccc(-c4cc(F)cc(F)c4)c23)c1 [PLX052, [4-(3,5-difluorophenyl)-1H-pyrrolo[2,3-b]pyridin-3-yl](3-methoxyphenyl)methanone]
- phosphorylation of FRS2α [2]: significant reduction in the phosphorylation of FRS2α
- concentration that inhibits FGFR activation to basal levels (tyrosine autophosphorylation of FGFR2) [3]: 10 µM
- MAP Kinase signaling [4]: attenuated MAP Kinase signaling
- concentration causing extensive cell death [5]: ≥ 50 µM
- growth of the wild type suture [6, 8]: did not affect the growth of the wild type suture
- normal development of the sutures in the wild type ([6]; 1 μM): without affecting the normal development of the sutures in the wild type
- normal development of the sutures in the wild type ([6]; 5 μM): without affecting the normal development of the sutures in the wild type
- premature fusion of coronal suture in mutant calvaria in vitro [7, 8]: able to rescue the premature fusion of coronal suture; also recorded: open suture in the mutant cultured with PLX052
- premature fusion of coronal suture of mutant mice calvaria ([7]; 1 μM): able to prevent the premature fusion of coronal suture
- premature fusion of coronal suture of mutant mice calvaria ([7]; 5 μM): able to prevent the premature fusion of coronal suture
